According to US12570650B2, “6-substituted pyridazine compounds as SMARCA2 and/or SMARCA4 degraders” (Aurigene Oncology Limited, priority 2020, dated 2026):

Columns and labels:
Assay type in all cases: cell-based
[1] = target: T1, SMARCA2 (Homo sapiens, UniProt P51531); experiment: SMARCA2 degradation in VCaP cells by Western blot; conditions: 16 hours
T1 construct: Determination of SMARCA2 and SMARCA4 Degradation in VCaP Cells by Western Blot; endogenous in cells; host or cells: VCaP (ATCC CRL-2876)
T1 sequence (P51531 whole entry): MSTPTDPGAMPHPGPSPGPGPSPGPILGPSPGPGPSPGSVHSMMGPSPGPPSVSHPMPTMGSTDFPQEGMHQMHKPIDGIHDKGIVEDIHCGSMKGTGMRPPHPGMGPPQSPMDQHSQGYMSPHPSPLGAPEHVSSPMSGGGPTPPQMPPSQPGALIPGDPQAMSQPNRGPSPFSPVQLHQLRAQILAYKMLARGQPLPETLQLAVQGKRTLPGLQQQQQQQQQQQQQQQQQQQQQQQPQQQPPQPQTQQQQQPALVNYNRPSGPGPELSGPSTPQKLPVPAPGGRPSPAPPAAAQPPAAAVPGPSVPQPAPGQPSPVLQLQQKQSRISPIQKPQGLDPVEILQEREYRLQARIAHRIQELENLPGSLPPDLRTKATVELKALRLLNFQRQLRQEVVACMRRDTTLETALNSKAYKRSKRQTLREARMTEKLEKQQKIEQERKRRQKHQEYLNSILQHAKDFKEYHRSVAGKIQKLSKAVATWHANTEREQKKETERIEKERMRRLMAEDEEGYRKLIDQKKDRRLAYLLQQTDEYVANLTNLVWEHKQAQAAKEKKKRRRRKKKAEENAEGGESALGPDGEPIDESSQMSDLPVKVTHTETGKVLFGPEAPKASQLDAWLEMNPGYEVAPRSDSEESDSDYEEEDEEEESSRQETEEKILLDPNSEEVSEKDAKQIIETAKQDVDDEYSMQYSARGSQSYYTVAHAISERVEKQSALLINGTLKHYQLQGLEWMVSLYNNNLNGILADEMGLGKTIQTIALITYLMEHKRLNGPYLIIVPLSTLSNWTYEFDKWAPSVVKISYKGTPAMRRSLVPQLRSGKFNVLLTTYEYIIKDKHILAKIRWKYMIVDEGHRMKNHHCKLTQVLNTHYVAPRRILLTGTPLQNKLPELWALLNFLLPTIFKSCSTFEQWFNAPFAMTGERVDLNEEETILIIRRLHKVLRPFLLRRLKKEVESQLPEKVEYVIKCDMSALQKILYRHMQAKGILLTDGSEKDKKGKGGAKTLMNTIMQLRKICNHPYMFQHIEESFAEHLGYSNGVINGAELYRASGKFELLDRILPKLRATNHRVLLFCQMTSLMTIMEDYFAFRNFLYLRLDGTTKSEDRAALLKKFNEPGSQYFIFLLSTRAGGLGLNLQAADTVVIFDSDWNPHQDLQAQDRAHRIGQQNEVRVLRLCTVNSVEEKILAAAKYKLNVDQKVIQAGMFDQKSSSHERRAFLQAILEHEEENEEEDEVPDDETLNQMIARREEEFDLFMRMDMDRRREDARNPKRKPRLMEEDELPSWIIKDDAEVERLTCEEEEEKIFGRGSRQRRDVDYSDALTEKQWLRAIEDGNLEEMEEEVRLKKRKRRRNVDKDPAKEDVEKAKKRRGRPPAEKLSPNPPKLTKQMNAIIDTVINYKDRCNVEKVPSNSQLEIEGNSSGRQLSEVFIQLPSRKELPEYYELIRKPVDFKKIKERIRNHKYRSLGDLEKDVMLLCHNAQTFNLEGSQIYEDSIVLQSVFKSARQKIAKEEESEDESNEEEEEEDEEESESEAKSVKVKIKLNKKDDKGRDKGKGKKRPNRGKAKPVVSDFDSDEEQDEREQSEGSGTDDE
Protocol: Example-P2: Determination of SMARCA2 and SMARCA4 Degradation in VCaP Cells by Western Blot
VCaP (ATCC CRL-2876) was plated in 6 well plates using complete Dulbecco's Modified Eagle's Medium. On the third day, compounds of present invention were added to cells from 10 mM stocks made in DMSO (Sigma Cat no. D2650). Each concentration of compound was tested with DMSO not exceeding final percentage of 0.3 in the cells. Cells were incubated with the compound for 16 hours followed by harvesting with 1×RIPA lysis buffer (Thermo Fischer, catalogue number #89900) containing protease inhibitor cocktail (Sigma catalogue number #P-8340). Equal amount of protein was loaded on SDS PAGE gel for electrophoresis. Western blot was carried out for detection of either SMARCA2 (Cell signalling technologies, catalogue number #11966) or SMARCA4 antibody (Cell signalling technologies, catalogue number #52251). Beta-Tubulin antibody (Cell signalling technologies, catalogue number #86298) was used as loading control. Percentage of SMARCA2 or SMARCA4 degradation was calculated using formula % Degradation=100−(normalized band intensity in treated sample/normalized band intensity in DMSO sample)*100.

[2] = target: T2, SMARCA4 (Homo sapiens, UniProt P51532); experiment: SMARCA4 degradation in VCaP cells by Western blot; conditions: 16 hours
T2 construct: Determination of SMARCA2 and SMARCA4 Degradation in VCaP Cells by Western Blot; endogenous in cells; host or cells: VCaP (ATCC CRL-2876)
T2 sequence (P51532 whole entry): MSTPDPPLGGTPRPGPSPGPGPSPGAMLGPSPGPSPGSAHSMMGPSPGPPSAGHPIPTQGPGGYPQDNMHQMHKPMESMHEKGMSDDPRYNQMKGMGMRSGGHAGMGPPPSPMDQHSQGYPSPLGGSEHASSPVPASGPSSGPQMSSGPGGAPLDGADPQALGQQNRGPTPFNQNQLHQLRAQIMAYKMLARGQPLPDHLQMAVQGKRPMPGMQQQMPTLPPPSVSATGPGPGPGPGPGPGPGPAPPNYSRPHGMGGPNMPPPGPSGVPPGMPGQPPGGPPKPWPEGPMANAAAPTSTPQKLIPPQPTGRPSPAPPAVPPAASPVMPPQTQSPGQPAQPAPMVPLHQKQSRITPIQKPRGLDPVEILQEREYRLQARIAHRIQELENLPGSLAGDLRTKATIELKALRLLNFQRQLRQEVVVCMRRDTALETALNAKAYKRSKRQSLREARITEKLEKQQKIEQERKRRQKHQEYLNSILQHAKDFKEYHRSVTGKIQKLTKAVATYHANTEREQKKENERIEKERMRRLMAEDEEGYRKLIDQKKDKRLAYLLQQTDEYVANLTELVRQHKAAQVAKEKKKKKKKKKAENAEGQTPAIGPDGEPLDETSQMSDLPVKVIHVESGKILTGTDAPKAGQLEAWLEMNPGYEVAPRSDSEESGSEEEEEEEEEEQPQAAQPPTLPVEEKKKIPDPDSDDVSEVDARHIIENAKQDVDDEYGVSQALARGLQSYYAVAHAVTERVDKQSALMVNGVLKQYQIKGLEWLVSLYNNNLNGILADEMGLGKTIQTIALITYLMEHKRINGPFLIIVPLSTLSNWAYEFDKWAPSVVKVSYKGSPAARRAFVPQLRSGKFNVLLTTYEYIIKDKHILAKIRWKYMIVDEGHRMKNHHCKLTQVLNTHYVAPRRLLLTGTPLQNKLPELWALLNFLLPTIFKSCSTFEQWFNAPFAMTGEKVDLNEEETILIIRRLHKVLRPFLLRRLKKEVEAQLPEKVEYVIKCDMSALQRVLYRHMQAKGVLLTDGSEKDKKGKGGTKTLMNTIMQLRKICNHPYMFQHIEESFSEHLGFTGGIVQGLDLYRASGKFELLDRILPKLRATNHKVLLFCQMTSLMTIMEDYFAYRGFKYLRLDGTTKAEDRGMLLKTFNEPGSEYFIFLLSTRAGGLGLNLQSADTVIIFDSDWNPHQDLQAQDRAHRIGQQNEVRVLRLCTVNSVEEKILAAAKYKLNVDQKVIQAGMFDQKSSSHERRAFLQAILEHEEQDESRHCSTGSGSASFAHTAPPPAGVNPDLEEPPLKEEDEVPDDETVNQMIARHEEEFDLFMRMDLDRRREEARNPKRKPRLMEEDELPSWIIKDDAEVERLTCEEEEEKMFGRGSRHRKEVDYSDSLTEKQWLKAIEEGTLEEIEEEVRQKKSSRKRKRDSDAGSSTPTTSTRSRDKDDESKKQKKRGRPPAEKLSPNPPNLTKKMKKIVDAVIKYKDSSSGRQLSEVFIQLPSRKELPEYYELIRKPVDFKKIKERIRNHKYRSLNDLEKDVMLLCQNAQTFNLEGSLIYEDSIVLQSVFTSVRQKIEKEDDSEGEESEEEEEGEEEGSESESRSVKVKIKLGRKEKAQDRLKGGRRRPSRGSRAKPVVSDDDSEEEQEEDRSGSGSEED
Protocol: On the third day, compounds of present invention were added to cells from 10 mM stocks made in DMSO (Sigma Cat no. D2650). Each concentration of compound was tested with DMSO not exceeding final percentage of 0.3 in the cells. […] Equal amount of protein was loaded on SDS PAGE gel for electrophoresis. […] Percentage of SMARCA2 or SMARCA4 degradation was calculated using formula % Degradation=100−(normalized band intensity in treated sample/normalized band intensity in DMSO sample)*100.

[3] = test system: SK-MEL-5 cells; experiment: Anti proliferative activity, Cell Titer Glo assay, SK-MEL-5; conditions: Homo sapiens, retreatment Day 4, terminated day 8, CellTiter-Glo
Protocol: Example-P3: Determination of Anti Proliferative Activity of Compounds by Cell Titer Glo®(Promega) Assay
Cells were seeded into 96-well plates and the plate was incubated in 37 degrees incubator overnight. The next day, compounds were diluted 3-fold to cover 9-point concentration range in DMSO. Intermediate plate dilution was prepared in media followed with compound treatment in cells. Retreatment of cells with compound dilutions was performed on Day 4 and assay was terminated on day 8 for SK-MEL-5 cells using CellTiter-Glo and the plate was kept on orbital shaker for 20 minutes at RT. Assay was terminated on day 6 for RERF-LC-A1 without a compound retreatment. Luminescence signal was recorded on VICTOR^3 instrument. Percent inhibition of proliferation was calculated at each concentration and plotted against the compound concentration. EC50 value was calculated using GraphPad software.

Cc1ncsc1-c1ccc([C@H](C)NC(=O)[C@@H]2C[C@@H](O)CN2C(=O)[C@@H](NC(=O)C(C)N2CCN(c3ccc(-c4cnnc(-c5ccccc5O)c4)cc3)CC2)C(C)(C)C)cc1 (stereo partly drawn) [Compound 28]
Percent degradation (at 100 nM) SMARCA2 [1]: 38% | Percent degradation (at 100 nM) SMARCA4 [2]: 0% | EC50 ([3]; SK-MEL-5, SK-MEL-5 cells): 250 to 500 nM

Cc1ncsc1-c1ccc([C@H](C)NC(=O)[C@@H]2C[C@@H](O)CN2C(=O)[C@@H](NC(=O)CC2CCC(c3ccc(-c4cnnc(-c5ccccc5O)c4)cc3)CC2)C(C)(C)C)cc1 (stereo partly drawn) [Compound 17, (2S,4R)-4-hydroxy-1-((S)-2-(2-(4-(4-(6-(2-hydroxyphenyl)pyridazin-4-yl)phenyl)cyclohexyl)acetamido)-3,3-dimethylbutanoyl)-N-((S)-1-(4-(4-methylthiazol-5-yl)phenyl)ethyl)pyrrolidine-2-carboxamide]
EC50 ([3]; SK-MEL-5, SK-MEL-5 cells): > 500 nM

Cc1ncsc1-c1ccc([C@H](C)NC(=O)[C@@H]2C[C@@H](O)CN2C(=O)[C@@H](NC(=O)CN2CCC(O)(c3ccc(-c4cnnc(-c5ccccc5O)c4)cc3)CC2)C(C)(C)C)cc1 [Compound 32, (2S,4R)-4-hydroxy-1-((S)-2-(2-(4-hydroxy-4-(4-(6-(2-hydroxyphenyl)pyridazin-4-yl)phenyl)piperidin-1-yl)acetamido)-3,3-dimethylbutanoyl)-N-((S)-1-(4-(4-methylthiazol-5-yl)phenyl)ethyl)pyrrolidine-2-carboxamide]
Percent degradation (at 100 nM) SMARCA2 [1]: 57% | Percent degradation (at 100 nM) SMARCA4 [2]: 0% | EC50 ([3]; SK-MEL-5, SK-MEL-5 cells): > 500 nM

Cc1ncsc1-c1ccc([C@H](C)NC(=O)[C@@H]2C[C@@H](O)CN2C(=O)[C@@H](NC(=O)C2CCN(c3ccc(-c4cnnc(-c5ccccc5O)c4)cc3)CC2)C(C)(C)C)cc1 [Compound 16, N-((S)-1-((2S,4R)-4-hydroxy-2-(((S)-1-(4-(4-methylthiazol-5-yl)phenyl)ethyl)carbamoyl)pyrrolidin-1-yl)-3,3-dimethyl-1-oxobutan-2-yl)-1-(4-(6-(2-hydroxyphenyl)pyridazin-4-yl)phenyl)piperidine-4-carboxamide]
Percent degradation (at 100 nM) SMARCA2 [1]: 76% | Percent degradation (at 100 nM) SMARCA4 [2]: 0% | EC50 ([3]; SK-MEL-5, SK-MEL-5 cells): < 250 nM

Cc1ncsc1-c1ccc([C@H](C)NC(=O)[C@@H]2C[C@@H](O)CN2C(=O)[C@@H](NC(=O)CN2CCCC(c3ccc(-c4cnnc(-c5ccccc5O)c4)cc3)C2)C(C)(C)C)cc1 (stereo partly drawn) [Compound 20, (2S,4R)-4-hydroxy-1-((2S)-2-(2-(3-(4-(6-(2-hydroxyphenyl)pyridazin-4-yl)phenyl)piperidin-1-yl)acetamido)-3,3-dimethylbutanoyl)-N-((S)-1-(4-(4-methylthiazol-5-yl)phenyl)ethyl)pyrrolidine-2-carboxamide]
Percent degradation (at 100 nM) SMARCA2 [1]: 41% | Percent degradation (at 100 nM) SMARCA4 [2]: 0% | EC50 ([3]; SK-MEL-5, SK-MEL-5 cells): 250 to 500 nM

Cc1ncsc1-c1ccc([C@H](C)NC(=O)[C@@H]2C[C@@H](O)CN2C(=O)[C@@H](NC(=O)C2CCC(c3ccc(-c4cnnc(-c5ccccc5O)c4)cc3)CC2)C(C)(C)C)cc1 (stereo partly drawn) [Compound 18, (2S,4R)-4-hydroxy-1-((S)-2-(4-(4-(6-(2-hydroxyphenyl)pyridazin-4-yl)phenyl)cyclohexane-1-carboxamido)-3,3-dimethylbutanoyl)-N-((S)-1-(4-(4-methylthiazol-5-yl)phenyl)ethyl)pyrrolidine-2-carboxamide]
Percent degradation (at 100 nM) SMARCA2 [1]: 95% | Percent degradation (at 100 nM) SMARCA4 [2]: 0% | EC50 ([3]; SK-MEL-5, SK-MEL-5 cells): < 250 nM

Cc1ncsc1-c1ccc([C@H](C)NC(=O)[C@@H]2C[C@@H](O)CN2C(=O)[C@@H](NC(=O)C(C)N2CCN(c3ccc(-c4cnnc(-c5ccccc5O)c4)cc3)CC2)C(C)(C)C)cc1 (single isomer, unassigned) [Compound 30]
Percent degradation (at 100 nM) SMARCA2 [1]: 79% | Percent degradation (at 100 nM) SMARCA4 [2]: 0% | EC50 ([3]; SK-MEL-5, SK-MEL-5 cells): < 250 nM

Cc1ncsc1-c1ccc([C@H](C)NC(=O)[C@@H]2C[C@@H](O)CN2C(=O)[C@@H](NC(=O)CCCCNc2ccc(-c3cnnc(-c4ccccc4O)c3)cc2)C(C)(C)C)cc1 [Compound 36, (2S,4R)-4-hydroxy-1-((S)-2-(5-((4-(6-(2-hydroxyphenyl)pyridazin-4-yl)phenyl)amino)pentanamido)-3,3-dimethylbutanoyl)-N-((S)-1-(4-(4-methylthiazol-5-yl)phenyl)ethyl)pyrrolidine-2-carboxamide]
Percent degradation (at 100 nM) SMARCA2 [1]: 90% | Percent degradation (at 100 nM) SMARCA4 [2]: 19% | EC50 ([3]; SK-MEL-5, SK-MEL-5 cells): < 250 nM

Cc1ncsc1-c1ccc([C@H](C)NC(=O)[C@@H]2C[C@@H](O)CN2C(=O)[C@@H](NC(=O)CN2CCC(c3cccc(-c4cnnc(-c5ccccc5O)c4)c3)CC2)C(C)(C)C)cc1 [Compound 23, (2S,4R)-4-hydroxy-1-((S)-2-(2-(4-(3-(6-(2-hydroxyphenyl)pyridazin-4-yl)phenyl)piperidin-1-yl)acetamido)-3,3-dimethylbutanoyl)-N-((S)-1-(4-(4-methylthiazol-5-yl)phenyl)ethyl)pyrrolidine-2-carboxamide]
Percent degradation (at 100 nM) SMARCA2 [1]: 15% | Percent degradation (at 100 nM) SMARCA4 [2]: 0% | EC50 ([3]; SK-MEL-5, SK-MEL-5 cells): > 500 nM

Cc1ncsc1-c1ccc([C@H](C)NC(=O)[C@@H]2C[C@@H](O)CN2C(=O)[C@@H](NC(=O)CN2CCC(c3ccc(-c4cnnc(-c5ccccc5O)c4)cn3)CC2)C(C)(C)C)cc1 [Compound 27, (2S,4R)-4-hydroxy-1-((S)-2-(2-(4-(5-(6-(2-hydroxyphenyl)pyridazin-4-yl)pyridin-2-yl)piperidin-1-yl)acetamido)-3,3-dimethylbutanoyl)-N-((S)-1-(4-(4-methylthiazol-5-yl)phenyl)ethyl)pyrrolidine-2-carboxamide]
EC50 ([3]; SK-MEL-5, SK-MEL-5 cells): > 500 nM

Cc1ncsc1-c1ccc([C@H](C)NC(=O)[C@@H]2C[C@@H](O)CN2C(=O)[C@@H](NC(=O)CN2CCC(Nc3ccc(-c4cnnc(-c5ccccc5O)c4)cc3)CC2)C(C)(C)C)cc1 [Compound 45, (2S,4R)-4-hydroxy-1-((S)-2-(2-(4-((4-(6-(2-hydroxyphenyl)pyridazin-4-yl)phenyl)amino)piperidin-1-yl)acetamido)-3,3-dimethylbutanoyl)-N-((S)-1-(4-(4-methylthiazol-5-yl)phenyl)ethyl)pyrrolidine-2-carboxamide]
Percent degradation (at 100 nM) SMARCA2 [1]: 94% | EC50 ([3]; SK-MEL-5 cells): < 250 nM

Cc1ncsc1-c1ccc([C@H](C)NC(=O)[C@@H]2C[C@@H](O)CN2C(=O)[C@@H](NC(=O)CN2CCC(c3ccc(-c4cnnc(-c5ccccc5O)c4)cc3)C2)C(C)(C)C)cc1 (stereo partly drawn) [Compound 22, (2S,4R)-4-hydroxy-1-((2S)-2-(2-(3-(4-(6-(2-hydroxyphenyl)pyridazin-4-yl)phenyl)pyrrolidin-1-yl)acetamido)-3,3-dimethylbutanoyl)-N-((S)-1-(4-(4-methylthiazol-5-yl)phenyl)ethyl)pyrrolidine-2-carboxamide]
EC50 ([3]; SK-MEL-5, SK-MEL-5 cells): > 500 nM

Cc1ncsc1-c1ccc([C@H](C)NC(=O)[C@@H]2C[C@@H](O)CN2C(=O)[C@@H](NC(=O)CN2CCN(c3ccc(-c4cnnc(-c5cc(F)ccc5O)c4)cc3)CC2)C(C)(C)C)cc1 [Compound 4, (2S,4R)-1-((S)-2-(2-(4-(4-(6-(5-fluoro-2-hydroxyphenyl)pyridazin-4-yl)phenyl)piperazin-1-yl)acetamido)-3,3-dimethylbutanoyl)-4-hydroxy-N-((S)-1-(4-(4-methylthiazol-5-yl)phenyl)ethyl)pyrrolidine-2-carboxamide]
Percent degradation (at 100 nM) SMARCA2 [1]: 81% | Percent degradation (at 100 nM) SMARCA4 [2]: 0%

Cc1ncsc1-c1ccc([C@H](C)NC(=O)[C@@H]2C[C@@H](O)CN2C(=O)[C@@H](NC(=O)CN2CCC(Oc3ccc(-c4cnnc(-c5ccccc5O)c4)cc3)CC2)C(C)(C)C)cc1 [Compound 19, (2S,4R)-4-hydroxy-1-((S)-2-(2-(4-(4-(6-(2-hydroxyphenyl)pyridazin-4-yl)phenoxy)piperidin-1-yl)acetamido)-3,3-dimethylbutanoyl)-N-((S)-1-(4-(4-methylthiazol-5-yl)phenyl)ethyl)pyrrolidine-2-carboxamide]
Percent degradation (at 100 nM) SMARCA2 [1]: 88% | Percent degradation (at 100 nM) SMARCA4 [2]: 0%
